Measurements as given in patent US9617262B2, “Antibacterial cyclopental[C]pyrrole substituted 3,4-dihydro-1H-[1,8]naphthyridinones” (Janssen Sciences Ireland UC, priority 2011, dated 2017).

target: S. aureus ATCC 29213 FabI (Staphylococcus aureus (strain MRSA252), UniProt Q6GI75); experiment: Staphylococcus aureus FabI enzyme inhibition assay; assay type: biochemical; conditions: pH 6.5, 30 minutes at room temperature
Description: FabI enzyme inhibition assays were carried out in half-area, 384-well microtitre plates. Compounds were evaluated in 40-μl assay mixtures containing 100 mM NaADA, pH 6.5 (ADA=N-[2-acetamido]-2iminodiacetic acid), 250 μM crotonoyl-CoA, 625 μM NADH and 50 μg/ml S. aureus ATCC 29213 FabI. Inhibitors were typically varied over the range of 50 to 0.39 μM. The reaction mixtures were incubated for 30 minutes at room temperature and the reaction was stopped by adding 200 mM Tris buffer (pH 9.0) to create a pH-shift. The consumption of NADH was monitored by measuring the change in absorbance at […]. By comparing sample readings to those of negative (absence of compound) and positive (absence of enzyme) controls, the percent inhibition of enzymatic activity of the compounds was determined. A best-fit curve is fitted by a minimum of squares method. From this an IC50-value (expressed in μg/ml), resulting in 50% inhibition of enzymatic activity, was obtained.

| SMILES | FabI IC50 [µg/mL] |
| --- | --- |
| O=C1CCc2cc(/C=C/C(=O)N3C[C@H]4CC(c5ccncc5)=C[C@H]4C3)cnc2N1 (single isomer, unassigned) [compound 40] | 0.39 |
| Cc1cscc1C1=CC2CN(C(=O)/C=C/c3cnc4c(c3)CCC(=O)N4)CC2C1 (centres unmarked) [compound 60] | 0.59 |
| O=C1CCc2cc(/C=C/C(=O)N3CC4CC(n5ccnn5)CC4C3)cnc2N1 (centres unmarked) [compound 38] | 2.08 |
| Cc1ccc(C2=CC3CN(C(=O)/C=C/c4cnc5c(c4)CCC(=O)N5)CC3C2)o1 (centres unmarked) [compound 57] | 0.62 |
| COc1ccsc1C1=CC2CN(C(=O)/C=C/c3cnc4c(c3)CCC(=O)N4)CC2C1 (centres unmarked) [compound 72] | 0.43 |
| O=C1CCc2cc(/C=C/C(=O)N3C[C@H]4CC(Oc5ccccc5)C[C@H]4C3)cnc2N1 (some centres unmarked) [compound 54] | 1.84 |
| O=C1CCc2cc(/C=C/C(=O)N3C[C@@H]4CC(c5ccsc5)=C[C@@H]4C3)cnc2N1 [compound 45] | 0.45 |
| Cn1cc(C2=CC3CN(C(=O)/C=C/c4cnc5c(c4)CCC(=O)N5)CC3C2)cn1 (centres unmarked) [compound 27] | 0.6 |
| O=C1CCc2cc(/C=C/C(=O)N3C[C@@H]4CN(c5ccc(Cl)cc5)C[C@@H]4C3)cnc2N1 [compound 35] | 1.25 |
| O=C1CCc2cc(/C=C/C(=O)N3C[C@@H]4CN(c5cccnc5)C[C@@H]4C3)cnc2N1 [compound 20] | 1.07 |
| O=C1CCc2cc(/C=C/C(=O)N3CC4CC(n5cncn5)CC4C3)cnc2N1 (centres unmarked) [compound 37] | 3.37 |
| O=C1CCc2cc(/C=C/C(=O)N3CC4CC(F)(F)CC4C3)cnc2N1 (centres unmarked) [compound 34] | 1.67 |
| O=C1CCc2cc(/C=C/C(=O)N3C[C@@H]4CN(c5cccs5)C[C@@H]4C3)cnc2N1 [compound 4] | 0.70 |
| COC1CC2CN(C(=O)/C=C/c3cnc4c(c3)CCC(=O)N4)CC2C1 (centres unmarked) [compound 31] | 1.42 |
| CC(=O)c1ccc(C2=CC3CN(C(=O)/C=C/c4cnc5c(c4)CCC(=O)N5)CC3C2)s1 (centres unmarked) [compound 62] | 0.44 |
| O=C1CCc2cc(/C=C/C(=O)N3CC4CC(n5cccn5)CC4C3)cnc2N1 (centres unmarked) [compound 29] | 1.04 |
| O=C1CCc2cc(/C=C/C(=O)N3C[C@@H]4CN(c5cccc(Cl)c5)C[C@@H]4C3)cnc2N1 [compound 36] | 0.93 |
| CC1=CC2CN(C(=O)/C=C/c3cnc4c(c3)CCC(=O)N4)CC2C1 (centres unmarked) [compound 52] | 0.50 |
| O=C1CCc2cc(/C=C/C(=O)N3CC4CC(n5nccn5)CC4C3)cnc2N1 (centres unmarked) [compound 39] | 0.56 |
| C#CN1C[C@@H]2CN(C(=O)/C=C/c3cnc4c(c3)CCC(=O)N4)C[C@@H]2C1 [compound 30] | 2.66 |
| O=C1CCc2cc(/C=C/C(=O)N3C[C@H]4CN(Cc5cccs5)C[C@H]4C3)cnc2N1 [compound 6] | 3.73 |
| O=C1CCc2cc(/C=C/C(=O)N3CC4C=C(c5nccs5)CC4C3)cnc2N1 (centres unmarked) [compound 32] | 0.46 |
| O=C1CCc2cc(/C=C/C(=O)N3C[C@@H]4CN(S(=O)(=O)c5ccccc5)C[C@@H]4C3)cnc2N1 [compound 33] | 3.06 |
